Reference: ChEMBL document CHEMBL1795300, “Fluorescent phosphoinositide 3-kinase inhibitors suitable for monitoring of intracellular distribution” (Bioorg Med Chem, 2011)

Legend:
[1] = Inhibition of PI3K assessed as amount of ADP produced preincubated with compound and L-alpha-phosphatidylinositol for 5 mins by Glo Max luminescent kinase assay
T47D = assay: Antiproliferative activity against human T47D cells after 48 hrs by MTT assay; assay type: functional, cell-based
MCF7 = assay: Antiproliferative activity against human MCF7 cells after 48 hrs by MTT assay; assay type: functional, cell-based; conditions: MCF7, 48 h
SK-BR-3 = assay: Antiproliferative activity against human SKBR3 cells after 48 hrs by MTT assay; assay type: functional, cell-based; conditions: SK-BR-3, 48 h

Structure (SMILES) | IC50 [1] | IC50 (T47D) | IC50 (MCF7) | IC50 (SK-BR-3)
COc1ccc(-n2c(-c3ccc(NC(C)=O)cc3)nc3c2c(=O)n(C)c(=O)n3C)cc1F | 0.031 µM | 1.6 µM | 2.8 µM | 11.5 µM
COc1ccc(-n2c(-c3ccc(NC(C)=O)c(OC)c3)nc3c2c(=O)n(C)c(=O)n3C)cc1F | 8.5 µM |  |  | 
COc1cc(N(C)C)ccc1-c1nc2c(c(=O)n(C)c(=O)n2C)n1-c1cccc(F)c1 | 22 µM |  |  | 
CN(C)c1ccc(-c2nc3c(c(=O)n(C)c(=O)n3C)n2-c2cccc(F)c2)cc1 | 20 µM |  |  | 
COc1ccc(-n2c(-c3ccc(N(C)C)cc3)nc3c2c(=O)n(C)c(=O)n3C)cc1F | 22 µM |  |  | 
COc1ccc(-n2c(-c3ccc(NC(C)=O)cc3)nc3c2c(=O)n(C)c(=O)n3C)cc1 | 0.15 µM | 3.7 µM | 9.4 µM | > 25 µM
COc1ccc(-n2c(-c3ccc(N(C)C)cc3)nc3c2c(=O)n(C)c(=O)n3C)cc1 | 22 µM |  |  | 
COc1ccc(-n2c(-c3cccc(NS(C)(=O)=O)c3)nc3c2c(=O)n(C)c(=O)n3C)cc1 | 3.2 µM |  |  | 
COc1cc(N(C)C)ccc1-c1nc2c(c(=O)n(C)c(=O)n2C)n1-c1cc(F)cc(F)c1 | 15 µM |  |  | 
CC(=O)Nc1ccc(-c2nc3c(c(=O)n(C)c(=O)n3C)n2-c2ccc(Cl)c(Cl)c2)cc1 | 0.28 µM |  |  | 
CC(=O)Nc1ccc(-c2nc3c(c(=O)n(C)c(=O)n3C)n2-c2ccc(C)cc2)cc1 | 0.37 µM |  |  | 
COc1ccc(-n2c(-c3ccc(N(C)C)cc3)nc3c2c(=O)n(C)c(=O)n3C)cc1OC | 25 µM |  |  | 
COc1ccc(-n2c(-c3cncc(NS(=O)(=O)c4ccccc4)c3)nc3c2c(=O)n(C)c(=O)n3C)cc1 | 0.091 µM |  |  | 
CN(C)c1ccc(-c2nc3c(c(=O)n(C)c(=O)n3C)n2-c2ccc(Cl)c(Cl)c2)cc1 | > 30 µM |  |  | 
COc1ccc(-n2c(-c3ccc(NC(C)=O)cc3)nc3c2c(=O)n(C)c(=O)n3C)cc1OC | 0.51 µM |  |  | 
COc1ccc(-n2c(-c3cncc(NS(=O)(=O)c4ccc(C)cc4)c3)nc3c2c(=O)n(C)c(=O)n3C)cc1 | 0.22 µM |  |  | 
CC(=O)Nc1ccc(-c2nc3c(c(=O)n(C)c(=O)n3C)n2-c2cccc(F)c2)cc1 | 0.068 µM | 0.9 µM | 1.7 µM | 15.4 µM
COc1ccc(-n2c(-c3cncc(NS(C)(=O)=O)c3)nc3c2c(=O)n(C)c(=O)n3C)cc1 | 4.5 µM |  |  | 
CC(=O)Nc1ccc(-c2nc3c(c(=O)n(C)c(=O)n3C)n2-c2ccccc2)cc1 | 12.5 µM |  |  | 
COc1cc(NC(C)=O)ccc1-c1nc2c(c(=O)n(C)c(=O)n2C)n1-c1ccc(Cl)c(Cl)c1 | 13 µM |  |  | 
CNC(=O)Nc1ccc(-c2nc3c(c(=O)n(C)c(=O)n3C)n2-c2ccc(OC)c(F)c2)cc1 | 0.017 µM | 4.7 µM | 11.6 µM | > 25 µM
CN(C)c1ccc(-c2nc3c(c(=O)n(C)c(=O)n3C)n2-c2cc(F)cc(F)c2)cc1 | 25 µM |  |  | 
COc1ccc(-n2c(-c3cnccc3NS(C)(=O)=O)nc3c2c(=O)n(C)c(=O)n3C)cc1 | > 30 µM |  |  | 
COC(=O)Nc1ccc(-c2nc3c(c(=O)n(C)c(=O)n3C)n2-c2ccc(OC)cc2)cc1 | 0.21 µM | 1.7 µM | 4.2 µM | > 25 µM
